Results taken from US6822146B2, “Sulfonylurea-tolerant sunflower line M7” (priority 2000, dated 2004).

Key:
[1] = system: BC4-M5M12 × PHA155 hybrid; assay: Test E injury to sunflower hybrid; type: in vivo
Experimental: Based on the results from Test D, a modified protocol was developed to include three timings of post-emergence treatment. The hybrid BC4-M5M12 (female parent)×PHA155 restorer line (male parent) described in Test C was used in this test. Various herbicide programs were tested using three replications. […] Seed coatings of these formulated herbicides were applied to 6 kg of seeds in such amount that considering the distribution of the coated seeds in each pot, the herbicide active ingredient (a.i.) application rates per hectare were as indicated.
The treatments were applied similar to the methods described for Test D. Pre-emergence applications were broadcast only, not soil incorporated. For pre-emergence application, the pots were sprayed using the high rates of the herbicides two days after sowing the sunflower seeds. Post-emergence treatments were applied at the 4-6 leaf stage of sunflower (corresponding to early stage of Orobanche attachment; identified as “T1”), the 6-8 leaf stage of sunflower (corresponding to the mid stage of Orobanche attachment; nodules <5 mm diameter; identified as “T2”) and 8-12 leaf stage of sunflower (corresponding to late stage of Orobanche attachment; identified as “T3”). The mid-stage applications included the high as well as low application rates of each herbicide.
For comparison were also included in this test other acetolactate synthase-inhibiting herbicides reported in the literature as giving good weed control of Orobanche (L. García-Torres et al., Weed Research 1994, 34, 395-402; L. García-Torres et al., Weed Technology 1995, 9, 819-824; J. Hershenhorn et al., Weed Technology 1998, 12, 108-114).

[2] = system: Chenopodium album; assay: Test H weed control, field plots; type: in vivo; conditions: 36 days after treatment; g a.i./ha: tribenuron-methyl 22.5, metsulfuron-methyl 6, ethametsulfuron-methyl 16, imazapyr isopropylamine salt 15, aclonifen 1200
Text: (§1) Field plots (2 m×5 m) were tilled to remove weed cover and then seeded in rows with the following weeds: Capsella bursa pastoris, Atriplex patula, Chenopodium album, Stellaria media, Mecurialis annua, Polygonum persicaria, Amaranthus retroflexus, Polygonum convolvulus, Polygonum aviculare, Viola arvensis, Matricaria inodora, Anagallis arvensis, Sinapis arvensis, Setaria viridis, Solanum nigrum and Echinochloa crusgalli. After 21 days from sowing, at which time the weeds had reached the 2- to 6-leaf stage, herbicide treatments were applied to the plots according to a complete randomized block design, with each herbicide treatment triply replicated. The herbicides were sprayed using standard flat fan nozzles moved perpendicular to the sown lines using water spray volumes of about 296 L/ha.
(§2) Assessments of weed control were made by visual inspection 36 days after herbicide treatment. A visual rating system was used based on a percentage scale from 0 to 100% compared to an adjacent untreated control plot. On this scale 0 represents no visual differences relative to an untreated control and 100 represents complete control of the given weed species.

[3] = system: Stellaria media; assay: Test H weed control, field plots; type: in vivo; conditions: 36 days after treatment; g a.i./ha: tribenuron-methyl 22.5, metsulfuron-methyl 6, ethametsulfuron-methyl 16, imazapyr isopropylamine salt 15, aclonifen 1200
Text: as §1, §2

[4] = system: M5M7; assay: Test B greenhouse phytotoxicity, M5M7; type: in vivo, sunflower; conditions: in vivo
How it was run: (§3)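 Formulated ALS-inhibiting herbicides sprayed post-emergence at the 4-leaf stage on homozygous mutant sunflower inbreds (M5 maintainers and BC4 male-sterile back-crosses) in the greenhouse, at rates commonly used in registered crops. Two replicates; crop injury rated as % phytotoxicity, 0% meaning no injury.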

[5] = system: homozygous progeny of the three mutant sources; type: in vivo, sunflower; conditions: Test B application rates, post-emergence
How it was run: as §3

[6] = system: BC4-M5M7; assay: Test B greenhouse phytotoxicity, BC4-M5M7; type: in vivo, sunflower; conditions: in vivo
How it was run: as §3

[7] = system: BC4-M5M12; assay: Test B greenhouse phytotoxicity, BC4-M5M12; type: in vivo, sunflower; conditions: in vivo
How it was run: as §3

[8] = system: M5M12; assay: Test B greenhouse phytotoxicity, M5M12; type: in vivo, sunflower; conditions: in vivo
How it was run: as §3

[9] = system: M5M11; assay: Test B greenhouse phytotoxicity, M5M11; type: in vivo, sunflower; conditions: in vivo
How it was run: as §3

[10] = system: BC4-M5M11; assay: Test B greenhouse phytotoxicity, BC4-M5M11; type: in vivo, sunflower; conditions: in vivo
How it was run: as §3

[11] = system: BC4-M5M7 × PHA155; assay: Test C field phytotoxicity, BC4-M5M7 × PHA155; type: in vivo, sunflower
Text: A rating of 0% phytotoxicity means no crop injury.

Compound | sunflower phytotoxicity ([1]; in vivo) | weed control, visual rating: Chenopodium album [2] | weed control, visual rating: Stellaria media [3] | Maximum Phytotoxicity [4] | tolerance of the mutants [5] | Maximum Phytotoxicity [6] | Maximum Phytotoxicity [7] | Maximum Phytotoxicity [8] | Maximum Phytotoxicity [9] | Maximum Phytotoxicity [10] | sunflower phytotoxicity ([1]; Test E rates) | Injury ([1]; post-emergence 18.75 g a.i./ha at T2) | Phytotoxicity Rating After Treatment ([11]; postemergence 7.5 g a.i./ha, 7 DAT) | Phytotoxicity Rating After Treatment ([11]; postemergence 7.5 g a.i./ha, 15 DAT) | Phytotoxicity Rating After Treatment ([11]; postemergence 7.5 g a.i./ha, 30 DAT) | Phytotoxicity Rating After Treatment ([11]; postemergence 15 g a.i./ha, 7 DAT) | Phytotoxicity Rating After Treatment ([11]; postemergence 15 g a.i./ha, 15 DAT) | Phytotoxicity Rating After Treatment ([11]; postemergence 15 g a.i./ha, 30 DAT)
COC(=O)c1ccccc1S(=O)(=O)NC(=O)Nc1nc(C)nc(OC)n1 [Metsulfuron-methyl, metsulfuron-methyl] | more likely to cause sunflower phytotoxicity | 100% | 100% |  |  |  |  |  |  |  |  |  |  |  |  |  |  | 
COC(=O)c1ccccc1S(=O)(=O)NC(=O)N(C)c1nc(C)nc(OC)n1 [Tribenuron-methyl, tribenuron-methyl] |  | 100% | 100% | 12.5% | good tolerance | 10% | 20% | 7.5% | 0% | 17.5% |  |  |  |  |  |  |  | 
COC(=O)c1cccc(C)c1S(=O)(=O)NC(=O)Nc1nc(OCC(F)(F)F)nc(N(C)C)n1 [Triflusulfuron-methyl, triflusulfuron-methyl] |  |  |  |  |  |  |  |  |  |  | transitory phytotoxicity symptoms | 0% | 38% | 40% | 28% | 57% | 53% | 40%
